From ChEMBL document CHEMBL3616404, “Expanding the chemical space of human serine racemase inhibitors” (Bioorg Med Chem Lett, 2015)

Experiments:
[1] = target: T1, Serine racemase (Homo sapiens) (UniProt Q9GZT4); assay: Inhibition of hexa-His-tagged purified human recombinant serine racemase expressed in Escherichia coli BL21 Codonplus (DE3)-RIL cells assessed as reduction in beta-elimination of L-serine at 5 mM by spectrophotomtery
T1 sequence (whole entry): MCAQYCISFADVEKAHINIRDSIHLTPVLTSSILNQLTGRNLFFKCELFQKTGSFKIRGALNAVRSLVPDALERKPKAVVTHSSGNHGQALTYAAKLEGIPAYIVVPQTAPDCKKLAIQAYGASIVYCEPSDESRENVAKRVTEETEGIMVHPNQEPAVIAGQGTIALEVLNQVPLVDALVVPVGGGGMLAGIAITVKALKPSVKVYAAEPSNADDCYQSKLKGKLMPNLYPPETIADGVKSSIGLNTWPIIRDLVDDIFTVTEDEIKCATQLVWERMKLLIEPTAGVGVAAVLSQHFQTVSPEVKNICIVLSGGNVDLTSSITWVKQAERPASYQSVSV

Serine racemase [2] = target: T2, Serine racemase (Homo sapiens, UniProt Q9GZT4); assay: Inhibition of hexa-His-tagged purified human recombinant serine racemase expressed in Escherichia coli BL21 Codonplus (DE3)-RIL cells assessed as reduction in beta-elimination of L-serine at by spectrophotomtery
T2 sequence (Q9GZT4 whole entry): T1 sequence (whole entry)

[3] = target: T1, Serine racemase (Homo sapiens); assay: Inhibition of hexa-His-tagged purified human recombinant serine racemase expressed in Escherichia coli BL21 Codonplus (DE3)-RIL cells assessed as reduction in beta-elimination of L-serine at 2.8 mM by spectrophotomtery
Serine racemase [4] = target: T2, Serine racemase; assay: Inhibition of human recombinant serine racemase expressed in Escherichia coli Rosetta 2 (DE3) cells using L-serine as substrate by horseradish peroxidase based couple assay
[5] = target: T1, Serine racemase (Homo sapiens); details: 330 uM
Description: Inhibition of hexa-His-tagged purified human recombinant serine racemase expressed in Escherichia coli BL21 Codonplus (DE3)-RIL cells assessed as reduction in beta-elimination of L-serine at 330 uM by spectrophotomtery

Compound	inhibition [1] [%]	Ki (Serine racemase [2]) [µM]	inhibition [3] [%]	Ki (Serine racemase [4]) [µM]	inhibition [5] [%]
CN1C(=O)C(=CNC(CC(=O)O)C(=O)O)C(=O)N(C)C1=O (stereo unspecified)	66	1700	–	–	–
O=C(O)CC(CC(=O)O)C(=O)O [TRICARBALLYLIC ACID]	–	1300	59	–	–
O=C(O)COCC(=O)Cc1cc(SCCO)cc([N+](=O)[O-])c1	–	4500	29	–	–
O=C(O)NCS(=O)(=O)c1cccs1	70	1500	–	–	–
CC[C@H](NS(=O)(=O)c1ccc([N+](=O)[O-])cc1)C(=O)O	70	1500	–	–	–
O=C(O)CC(=O)O [MALONIC ACID]	–	66	–	59	76
O=C(O)CC1(C(=O)O)CN2CCC1CC2 (stereo unspecified)	2	> 10000	–	–	–
O=[N+]([O-])c1cccnc1SCC(O)CO (stereo unspecified)	–	–	0	–	–
